Source: patent publication US20170056345A1 (priority 2014, published 2017)

Legend:
[1] = system: M. tuberculosis; experiment: time-kill curve method, bactericidal activity (CFU) on solid media at pH6; format: cell-based; settings: FIG. 2
Method: The synergistic effect of AHA in overcoming urea protection of M. tuberculosis and in enhancing the efficacy of PZA is illustrated.
We employed a time-kill curve method to determine the bactericidal activity of PZA and a combination of PZA and acetohydroxamic acid (AHA) against M. tuberculosis. We cultured M. tuberculosis on solid media at pH6. CFU values were determined for samples treated with pyrazinamide (PZA), urea at a typical body fluid concentration and acetohydroxamic acid. […] Consequently, our results provide that AHA acts not only as a PZA booster, but also as an anti-mycobacterial agent, in some instances, in a synergistic manner with the traditional anti-mycobacterial agent used.

[2] = molecular target: mycobacterial urease (Mycobacterium bovis, UniProt A1KJR2); experiment: cell-based; set-up: species or system M. bovis BCG
Sequence of mycobacterial urease (A1KJR2 whole entry, looked up): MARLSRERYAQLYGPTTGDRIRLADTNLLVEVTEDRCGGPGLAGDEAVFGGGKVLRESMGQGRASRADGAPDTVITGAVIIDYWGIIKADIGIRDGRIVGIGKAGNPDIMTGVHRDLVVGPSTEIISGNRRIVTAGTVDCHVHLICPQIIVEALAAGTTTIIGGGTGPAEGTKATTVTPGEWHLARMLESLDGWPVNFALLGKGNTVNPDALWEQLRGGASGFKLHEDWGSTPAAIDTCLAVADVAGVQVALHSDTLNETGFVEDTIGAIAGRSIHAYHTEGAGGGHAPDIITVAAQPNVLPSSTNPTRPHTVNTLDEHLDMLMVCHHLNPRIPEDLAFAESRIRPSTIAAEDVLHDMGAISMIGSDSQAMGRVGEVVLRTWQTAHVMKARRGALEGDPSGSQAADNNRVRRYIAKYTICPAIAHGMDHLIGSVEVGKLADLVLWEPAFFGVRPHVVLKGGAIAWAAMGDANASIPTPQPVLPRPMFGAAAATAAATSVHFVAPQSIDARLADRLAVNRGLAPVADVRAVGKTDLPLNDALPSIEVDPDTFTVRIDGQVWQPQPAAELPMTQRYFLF

| SMILES | kill (bactericidal activity, CFU) ([1]; PZA alone, M. tuberculosis on solid media at pH6) | effect on kill rate ([1]; AHA combined with PZA (urea present), solid media pH6) | effect on urea protection against the PZA kill ([1]; AHA with PZA and urea at a typical body fluid concentration, solid media pH6) | IC50 [2] [µM] |
| --- | --- | --- | --- | --- |
| NC(=O)c1cnccn1 [PZA, pyrazinamide] | modest | – | – | – |
| CC(=O)NO [acetohydroxamic acid] | – | substantially increased the kill rate | prevented urea protection | 100 to 200 |
